Experimental findings from patent EP2878306B1, “MODIFIED PEPTIDE, CB RECEPTOR LIGAND, KIT, IN VITRO PROCESS FOR […] RECEPTOR BONDS, USES, PHARMACEUTICAL COMPOSITION FOR […] RECEPTOR ACTIVITY” (Proteimax Biotecnologia Ltda, priority 2012, dated 2014) are described below.

No end group written: not given here.

For one data set, the target named is T1, CB1 receptor (Homo sapiens, UniProt P21554).
T1 construct: ligand for CB1 receptor through ELISA with striate membranes (5µg/pool) treated with 1µM of each drug; from tissue; host or cells: striatal ('striate') membranes
Nature of the data set: ELISA with striate membranes and anti-CB1 antibody, receptor activating percentage regarding the control. In kind it is biochemical. Particulars: for activity in CB1 receptors: striate membranes 5µg/pool, 1µM of each drug, 2 hours, ambient temperature, compared to control and SeqID:1. The procedure: (§1) The receptor activating percentage was calculated regarding the control, non-treated membrane (100%). […] Significant differences are indicated and p<0.05.

A further data set relates to CB2 receptor. In words: ELISA with striate membranes for CB2 receptor, receptor activating percentage regarding the control. In kind it is biochemical. The procedure:
as §1
In general terms: ELISA stands for enzyme-linked immunosorbent assay.

For data set [1], the system named is Thin wistar rats. In words: Test in Mesenteric adipose tissue. Format: in vivo. Particulars: 100 ug/Kg, 3 days orally; in comparison with Rimonabant and/or saline; scale g/100g. The procedure:
The measure of the adipose tissue was performed after finishing the treatment. The results are expressed by the mesenteric adipose tissue weight measured at the treatment end (scale of g/100g). Rats administered with vehicle (saline) were subject to the same protocol (control).

In data set [2] the test system is Thin wistar rats. Nature of the data set: Test in Retroperitoneal adipose tissue. The conditions noted are these: 100 ug/Kg, 3 days orally; in comparison with Rimonabant and/or saline; scale g/100g. In kind it is in vivo. The procedure: The measure of the adipose tissue was performed after finishing the treatment. The results are expressed by the retroperitoneal adipose tissue weight measured for treatment purpose (scale of g/100g). Rats administered with vehicle (saline) were subject to the same protocol (control).

The test system of data set [3] is Thin wistar rats. In words: Serum leptin concentration determination. The conditions noted are these: 100 ug/Kg, 3 days orally; in comparison with saline. In kind it is in vivo. The method, then:
Thin wistar rats were treated with a Rimonabant dosage (100 ug/Kg) or peptide 19 (Pep 19 100 ug/Kg) during 3 days orally. The measure of the serum leptin concentration was performed after finishing the treatment. The results are expressed ng/mL. Rats administered with vehicle (saline) were subject to the same protocol (control).

Data set [4] has as its system Thin wistar rats. In words: Test in Brown adipose tissue. In kind it is in vivo. Particulars: 100 ug/Kg, 3 days orally; in comparison with Rimonabant and/or saline; scale g/100g. The method, then: The measure of the adipose tissue was performed after finishing the treatment. The results are expressed by the brown adipose tissue weight measured at the treatment end (scale of g/100g). Rats administered with vehicle (saline) were subject to the same protocol (control).

For data set [5], the system named is Thin wistar rats. Nature of the data set: Test in Gonadal adipose tissue. Format: in vivo. The conditions noted are these: 100 ug/Kg, 3 days orally; in comparison with Rimonabant and/or saline; scale g/100g. The method, then: The measure of the adipose tissue was performed after finishing the treatment. The results are expressed by the gonadal adipose tissue weight measured at the treatment end (scale of g/100g). Rats administered with vehicle (saline) were subject to the same protocol (control).

In data set [6] the test system is Thin wistar rats. In words: Adiposity ratio determination. In kind it is in vivo. The conditions noted are these: 100 ug/Kg, 3 days orally; in comparison with Rimonabant and/or saline. The method, then: Thin wistar rats were treated with a Rimonabant dosage (100 ug/Kg) or peptide 19 (Pep 19 100 ug/Kg) during 3 days orally. The measure of the adiposity ratio was performed after finishing the treatment using the formula (%), (I=Σ fat deposits/body weight x 100). The results are expressed by the animal weight measured at the treatment end (scale of g/100g). Rats administered with vehicle (saline) were subject to the same protocol (control).

Data set [7] concerns animals supplemented with 20% saccharose. Nature of the data set: Determination of the amount of inguinal adipose tissue in animals supplemented with 20% saccharose. In kind it is in vivo, Wistar rats. Particulars: 100µg/Kg; after the 30th day of treatment; in comparison to further groups. The procedure: (§2) Wistar rats fed with standard regimen supplemented with 20% saccharose were used in the drinking water during 60 days before and during the 30 days-treatment with SALINE (negative control), Rimonabant (positive control), Peptide 19 (Pep 19) in the concentration of 50µg/Kg and Peptide 19 (Pep 19) in the concentration of 100 µg/Kg.

Data set [8] shares this test system. In words: Determination of the insulinemia in animals supplemented with 20% saccharose. In kind it is in vivo, Wistar rats. Particulars: 100 µg/Kg; after 30 days-treatment. The procedure:
as §2

The test system is the same in data set [9]. In words: Determination of the weight in animals supplemented with 20% saccharose. Format: in vivo, Rats wistar. Particulars: 100 µg/Kg; 3th to 5th week of treatment. The procedure:
Rats wistar fed with standard regimen supplemented with 20% saccharose were used in the drinking water during 60 days before and during the 30 days-treatment with SALINE (negative control), Rimonabant (positive control), Peptide 19 (Pep 19) in the concentration of 50µg/Kg and Peptide 19 (Pep 19) in the concentration of 100 µg/Kg.

Data set [10] has the same test system. Nature of the data set: Determination of the blood pressure in animals supplemented with 20% saccharose. In kind it is in vivo, Wistar rats. The conditions noted are these: 600µg/Kg; 30 days-treatment; in comparison to further groups. The procedure: (§3) Wistar rats fed with standard regimen supplemented with 20% saccharose were used in the drinking water during 60 days before and during the 30 days-treatment with SALINE (negative control), Rimonabant (positive control), Peptide 19 (Pep 19) in the concentration of 100µg/Kg, 300µg/Kg and 600µg/Kg.

Data set [11] has the same test system. Nature of the data set: Determination of the amount of gonadal adipose tissue in animals supplemented with 20% saccharose. Format: in vivo, Wistar rats. Particulars: 100µg/Kg; after the 30th day of treatment; in comparison to further groups. The method, then: as §2
Data set [12] has the same test system. In words: Determination of the amount of mesenteric adipose tissue in animals supplemented with 20% saccharose. In kind it is in vivo, Wistar rats. Particulars: after the 30th day of treatment, in comparison to further groups. The procedure:
as §2

The subject of data set [13] is Thin wistar rats. Nature of the data set: Test in Inguinal adipose tissue. Format: in vivo. The conditions noted are these: 100 ug/Kg, 3 days orally; in comparison with Rimonabant and/or saline; scale g/100g. The method, then:
The measure of the adipose tissue was performed after finishing the treatment. The results are expressed by the inguinal adipose tissue weight measured at the treatment end (scale of g/100g). Rats administered with vehicle (saline) were subject to the same protocol (control).

For data set [14], the system named is animals supplemented with 20% saccharose. In words: Glucose in animals supplemented with 20% saccharose. Format: in vivo, Winstar rats. The conditions noted are these: 100 µg/Kg; 15th and 30th days of treatment. The procedure: Winstar rats fed with standard regimen supplemented with 20% saccharose were used in the drinking water during 60 days before and during the 30 days-treatment with SALINE (negative control), Rimonabant (positive control), Peptide 19 (Pep 19) in the concentration of 50µg/Kg and Peptide 19 (Pep 19) in the concentration of 100 µg/Kg.

Another data set relates to non-obese wistar rats. In words: Treatment acute model, 3 days orally (Figures 4 to 9). In kind it is in vivo. The source says: Furthermore, in a treatment acute model (3 days of treatment orally in non-obese wistar rats) it was verified the brown adipose tissue activation, the retroperitoneal, inguinal and brown adipose tissues reduction, as well the adiposity ratio (Figures 4 to 9), effects not observed with Rimonabant.

The subject of data set [15] is animals supplemented with 20% saccharose. In words: Determination of the adiposity ratio in animals supplemented with 20% saccharose (Example 26). In kind it is in vivo, Wistar rats. Particulars: 600µg/Kg; 30 days-treatment; in comparison to further groups. The method, then: as §3
A further data set concerns Rats. Nature of the data set: Depression model (forced swim). Format: in vivo. Particulars: stated as contrary to Rimonabant. The procedure:
The forced swim test was performed based on the previous tests ([Harkin et al., 2004], [Petit-Demouliere et al., 2005] and [Treit and Menard, 1998]).

Data set [16] concerns animals supplemented with 20% saccharose. Nature of the data set: Determination of the cholesterol in animals supplemented with 20% saccharose. In kind it is in vivo, Wistar rats. Particulars: after 30 days-treatment. The procedure:
as §2

Data set [17] shares this test system. Nature of the data set: Determination of the adiposity ratio in animals supplemented with 20% saccharose (Example 25). Format: in vivo, Wistar rats. Particulars: 100µg/Kg; 30 days-treatment; in comparison to further groups. The procedure: as §2
Data set [18] shares this test system. In words: Determination of Triglycerides in animals supplemented with 20% saccharose. Format: in vivo, Wistar rats. The conditions noted are these: 100 µg/Kg; after 30 days-treatment. The procedure:
as §2

T1 sequence (P21554 whole entry): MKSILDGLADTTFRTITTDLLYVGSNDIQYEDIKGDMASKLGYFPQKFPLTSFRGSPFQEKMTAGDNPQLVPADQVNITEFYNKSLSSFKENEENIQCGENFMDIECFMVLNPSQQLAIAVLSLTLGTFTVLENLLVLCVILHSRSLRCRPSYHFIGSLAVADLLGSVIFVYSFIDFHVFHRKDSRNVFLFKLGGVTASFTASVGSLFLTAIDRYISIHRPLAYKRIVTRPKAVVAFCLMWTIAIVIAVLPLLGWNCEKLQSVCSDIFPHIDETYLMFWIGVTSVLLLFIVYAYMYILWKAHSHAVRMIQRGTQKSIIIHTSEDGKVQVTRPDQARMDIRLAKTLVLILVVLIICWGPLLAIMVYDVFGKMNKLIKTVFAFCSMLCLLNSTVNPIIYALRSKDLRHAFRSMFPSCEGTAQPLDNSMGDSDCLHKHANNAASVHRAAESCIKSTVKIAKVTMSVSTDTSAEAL

Take DIIADDAPLT [SeqID:3]: the “Result (activity regarding the CB1)” value with CB1 receptor (Table 1 summary) was “Reduces the activity regarding the CB1 (comparatively the SeqID:1)”. In addition, the “activity in CB1 receptors” value in the data set with CB1 receptor is “smaller activity in CB1 receptors”.
In the case of DILADDEPLT [SeqID:2], the “Result (activity regarding the CB1)” value in the data set with CB1 receptor (Table 1 summary) is given as “Reduces the activity regarding the CB1”. Further, in the data set on CB2 receptor (Table 1 summary), the “Result (activity in CB2)” value is given as “raises a strong inverse agonist activity in CB2”. The “activity in CB2 receptors” value in the data set with CB2 receptor (striate membranes 5µg/pool, 1 µM of each drug, 2 hours, ambient temperature) was “inverse agonist of the CB2 receptor”.
With DIIADDEALT [SeqID:5], the “Result (high dosages)” value in the data set with CB1 receptor (Table 1 summary, high dosages) is on record as “became agonist”. In addition, the “Result (low dosages)” value in the data set with CB1 receptor (Table 1 summary, low dosages) is “the inverse agonist activity was not detected”. The “activity in the endocannabinoid receptors, high dosages” value with CB1 receptor (high dosages, different dosages of each drug, 2 hours (Figure 14, CB1 receptor)) was “agonist activity”. Besides, in the data set with CB1 receptor (low dosages, different dosages of each drug, 2 hours (Figure 14, CB1 receptor)), the “activity in the endocannabinoid receptors, low dosages” value is recorded as “activity inverse agonist”.
As for DIIADDE [SeqID:4], the “Result (activity regarding the CB1)” value with CB1 receptor (Table 1 summary) is “Increases the activity regarding the CB1”. In the data set with CB1 receptor, the “activity in CB1 receptors” value is listed as “improved inverse agonist activity in CB1 receptors”.
On to “Cyclic peptide -Asp-Ile-Ile-Ala-Asp-Asp-Glu-Pro-Leu-Thr- [Example 6]”, for which the “Result (change in the activity of the cyclic form)” value at CB1 receptor (Table 1 summary, in vitro, receptor not stated) is on record as “Change in the activity was not detected”.
Turning to DIIADDEPLT [SeqID:1], the “mesenteric adipose tissue mass” value in the data set with Thin wistar rats [1] is on record as “no difference”. Besides, in the data set on Thin wistar rats [2], the “retroperitoneal adipose tissue mass” value was “smaller”. In the data set on Thin wistar rats [3], the serum leptin concentration entry is recorded as “smaller”. The “brown adipose tissue mass” value in the data set on Thin wistar rats [4] is “smaller”. The “gonadal adipose tissue mass” value with Thin wistar rats [5] was “no difference”. Moreover, the adiposity ratio entry in the data set with Thin wistar rats [6] is “smaller”. The “inguinal adipose tissue, corrected by the body weight” value in data set [7] is reported as “biggest amounts of inguinal adipose tissue”. The insulinemia entry in data set [8] is given as “lower average of insulinemia”. In addition, the “weight percentages (% from the animals weight treated with SALINE)” value in data set [9] was “lower weight percentages”. The blood pressure result in [10] is recorded as “lower blood pressure”. For the same substance, the “activity in CB1 receptors” value with CB1 receptor is “inverse agonist of the CB1 receptor”. Besides, the “gonadal adipose tissue, corrected by the body weight” value in data set [11] is listed as “lower percentages of gonadal adipose tissue”. Moreover, in [12] (50 µg/Kg), the “mesenteric adipose tissue, corrected by the body weight” value was “lower percentages of mesenteric adipose tissue”. Besides, the “mesenteric adipose tissue, corrected by the body weight” value in data set [12] (100µg/Kg) is “lower percentages of mesenteric adipose tissue”. The “inguinal adipose tissue mass” value with Thin wistar rats [13] is on record as “smaller”. Moreover, in data set [14], the glycaemia entry was “lower glycaemia”. Further, in the data set with non-obese wistar rats (3 days of treatment orally), the adiposity ratio entry was “reduction”, the brown adipose tissue entry is on record as “reduction”, the “brown adipose tissue activation” value is “activation” and the inguinal adipose tissue result was “reduction”. In addition, the retroperitoneal adipose tissue entry in the data set with non-obese wistar rats (3 days of treatment orally) is “reduction”. In the data set on non-obese wistar rats (oral administration), the “activity when administered orally” value is “has activity even when administered orally”. The “adiposity ratio (adipose tissue total mass corrected by the body weight)” value in data set [15] is on record as “lower amounts of adipose tissue”. In the data set on Rats, the “depression (forced swim, immobility time)” value is given as “does not cause depression”. Besides, the “cholesterol percentages (% from SALINE)” value in data set [16] (50µg/Kg) is on record as “lower cholesterol percentages”. The “cholesterol percentages (% from SALINE)” value in data set [16] (100 µg/Kg) is “lower cholesterol percentages”. Further, the “adiposity ratio (adipose tissue total mass corrected by the body weight)” value in [17] is listed as “biggest amounts of adipose tissue”. In addition, the “percentages of triglycerides (% from SALINE)” value in [18] is listed as “lower percentages of triglycerides”.
